Data on 29 molecules can be found in US6150385A, “1,3,4-thiadiazoles useful for the treatment of CMV infections” (Pharmacia & Upjohn Company, priority 1999, dated 2000).

As a reminder, the inhibition is the change of the read-out against control, counted positive when it falls. Low values mean a weak effect, high ones a strong effect.

The target of this assay is T1, HCMV polymerase (Human cytomegalovirus, UniProt P08546).
T1 construct: made in house; host or cells: SF-9 insect cells infected with recombinant baculovirus
T1 sequence (P08546 whole entry): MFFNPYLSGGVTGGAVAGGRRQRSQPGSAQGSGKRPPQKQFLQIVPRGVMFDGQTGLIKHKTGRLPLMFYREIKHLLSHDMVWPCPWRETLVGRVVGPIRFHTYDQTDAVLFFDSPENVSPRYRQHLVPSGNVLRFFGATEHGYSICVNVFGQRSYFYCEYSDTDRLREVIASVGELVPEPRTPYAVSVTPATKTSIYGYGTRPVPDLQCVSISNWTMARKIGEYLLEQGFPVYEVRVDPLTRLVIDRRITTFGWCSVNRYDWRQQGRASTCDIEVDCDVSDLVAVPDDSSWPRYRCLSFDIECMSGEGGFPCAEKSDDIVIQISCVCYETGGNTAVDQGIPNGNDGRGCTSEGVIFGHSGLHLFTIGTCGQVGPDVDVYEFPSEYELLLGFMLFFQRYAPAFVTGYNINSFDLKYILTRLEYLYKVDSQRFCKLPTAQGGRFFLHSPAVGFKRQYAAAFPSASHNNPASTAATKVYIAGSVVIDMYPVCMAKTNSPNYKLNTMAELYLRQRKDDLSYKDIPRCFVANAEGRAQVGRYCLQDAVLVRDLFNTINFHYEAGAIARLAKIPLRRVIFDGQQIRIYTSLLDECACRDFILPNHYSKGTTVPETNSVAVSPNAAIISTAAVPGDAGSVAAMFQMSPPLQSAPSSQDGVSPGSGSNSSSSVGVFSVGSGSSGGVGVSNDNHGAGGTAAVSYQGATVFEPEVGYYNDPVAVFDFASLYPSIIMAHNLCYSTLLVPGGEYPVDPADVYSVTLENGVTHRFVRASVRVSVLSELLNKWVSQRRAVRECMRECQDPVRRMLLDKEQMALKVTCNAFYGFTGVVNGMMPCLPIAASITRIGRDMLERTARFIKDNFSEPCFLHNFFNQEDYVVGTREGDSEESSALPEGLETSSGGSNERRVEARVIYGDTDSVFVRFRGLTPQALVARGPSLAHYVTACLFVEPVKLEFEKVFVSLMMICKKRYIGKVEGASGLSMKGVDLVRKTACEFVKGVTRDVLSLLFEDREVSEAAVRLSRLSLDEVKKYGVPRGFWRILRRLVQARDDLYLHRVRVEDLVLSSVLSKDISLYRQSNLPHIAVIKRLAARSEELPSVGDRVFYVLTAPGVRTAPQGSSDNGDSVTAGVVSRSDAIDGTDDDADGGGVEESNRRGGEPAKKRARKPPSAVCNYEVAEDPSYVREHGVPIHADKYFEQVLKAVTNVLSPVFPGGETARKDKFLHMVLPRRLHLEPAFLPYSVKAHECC
Briefly: HCMV polymerase assay (scintillation proximity assay). In kind it is biochemical. To be noted: percentage of inhibition at 25 μM concentration in CMV polymerase assay. The method, then: The compounds of the present invention are tested in an polymerase assay to show activity described below, which is indicative of a compound's activity and thus of its use as an anti-viral agent.
The HCMV polymerase assay is performed using a scintillation proximity assay (SPA) as described in several references, such as N. D. Cook, et al., Pharmaceutical Manufacturing International, pages 49-53 (1992); K. Takeuchi, Laboratory Practice, September issue (1992); U.S. Pat. No. 4,568,649 (1986); which are incorporated by reference herein. Reactions are performed in 96-well plates. The assay is conducted in 100 μl volume with 5.4 mM HEPES (pH 7.5), 11.7 mM KCl, 4.5 mM MgCl2, 0.36 mg/ml BSA, and 90 nM ^3 H-dTTP. Assays are run with and without CHAPS, (3-[(3-Cholamidopropyl)-dimethylammonio]-1-propanesulfonate) at a final concentration of 2 mM. HCMV is diluted in enzyme dilution buffer containing 50% glycerol, 250 mM NaCl, 10 mM HEPES (pH 7.5), 100 μg/ml BSA, and 0.01% sodium azide. The HCMV polymerase, which is expressed in recombinant baculovirus-infected SF-9 cells and purified according to literature procedures, is added at 10% (or 10 μl) of the final reaction volume, i.e., 100 μl. Compounds are diluted in 50% DMSO and 10 μl are added to each well. Control wells contain an equivalent concentration of DMSO. Unless noted otherwise, reactions are initiated via the addition of 6 nM biotinylated poly(dA)-oligo(dT) template/primer to reaction mixtures containing the enzyme, substrate, and compounds of interest. Plates are incubated in a 25° C. or 37° C. H2 O bath and terminated via the addition of 40 μl/reaction of 0.5 M EDTA (pH 8) per well. Reactions are terminated within the time-frame during which substrate incorporation is linear and varied depending upon the enzyme and conditions used, i.e., 30 min. for HCMV polymerase. Ten μl of streptavidin-SPA beads (20 mg/ml in PBS/10% glycerol) are added following termination of the reaction. Plates are incubated 10 min. at 37° C., then equilibrated to room temperature, and counted on a Packard Topcount.
In TABLE 1, "MS" refers to mass spectral data, "% inhib" refers to percentage of inhibition at 25 μM concentration in CMV polymerase assay.
(In general: In a scintillation proximity assay essentially only radioactivity close to the scintillant gives light.)
`CCCCCCCC/C=C/CCCCCCCC(=O)Nc1nnc(NCCCNC2CCCCC2)s1` [compound 1, (E)-N-(5-{[3-(cyclohexylamino)propyl]amino}-1,3,4-thiadiazol-2-yl)-9-octadecenamide] gave an inhibition at 25 µM of 100%. As for `O=C(Nc1nnc(NCCCNC2CCCCC2)s1)c1ccc2c(c1)C(=O)OC2=O` [compound 2, N-(5-{[3-(cyclohexylamino)propyl]amino}-1,3,4-thiadiazol-2-yl)-1,3-dioxo-1,3-dihydro-2-benzofuran-5-carboxamide], the figure is 100%; as for `O=C(Nc1nnc(NCC2CCCCC2)s1)c1ccc2c(c1)C(=O)OC2=O` [compound 3, N-{5-[(cyclohexylmethyl)amino]-1,3,4-thiadiazol-2-yl}-1,3-dioxo-1,3-dihydro-2-benzofuran-5-carboxamide], 100%.

For the molecule `CCCCCCCCCCCNc1nnc(NC(=O)c2ccc3c(c2)C(=O)OC3=O)s1` [compound 4, 1,3-dioxo-N-[5-(undecylamino)-1,3,4-thiadiazol-2-yl]-1,3-dihydro-2-benzofuran-5-carboxamide], the inhibition at 25 µM was found to be 100%. Regarding `CCCCCCCC/C=C/CCCCCCCC(=O)Nc1nnc(NCCC2CCCN2C)s1` (centres unmarked) [compound 5, (E)-N-(5-{[2-(1-methyl-2-pyrrolidinyl)ethyl]amino}-1,3,4-thiadiazol-2-yl)-9-octadecenamide], the inhibition at 25 µM was determined as 99.9%. `O=C(Nc1nnc(NCCNc2ccccc2)s1)c1ccc2c(c1)C(=O)OC2=O` [compound 6, N-{5-[(2-anilinoethyl)amino]-1,3,4-thiadiazol-2-yl}-1,3-dioxo-1,3-dihydro-2-benzofuran-5-carboxamide]: testing at 25 µM gave an inhibition of 99.9%. The figure for `O=C(Nc1nnc(NCc2ccc(F)cc2)s1)c1ccc2c(c1)C(=O)OC2=O` [compound 7, N-{5-[(4-fluorobenzyl)amino]-1,3,4-thiadiazol-2-yl}-1,3-dioxo-1,3-dihydro-2-benzofuran-5-carboxamide] is 99.8%; for `O=C(Nc1nnc(NCc2cccc3ccccc23)s1)c1ccc2c(c1)C(=O)OC2=O` [compound 8, N-{5-[(1-naphthylmethyl)amino]-1,3,4-thiadiazol-2-yl}-1,3-dioxo-1,3-dihydro-2-benzofuran-5-carboxamide] it is 99.8%; for `O=C(Nc1nnc(NCCc2cccs2)s1)c1ccc2c(c1)C(=O)OC2=O` [compound 9, 1,3-dioxo-N-(5-{[2-(2-thienyl)ethyl]amino}-1,3,4-thiadiazol-2-yl)-1,3-dihydro-2-benzofuran-5-carboxamide] it is 99.8%. As for `O=C(Nc1nnc(NCCc2c[nH]c3ccccc23)s1)c1ccc2c(c1)C(=O)OC2=O` [compound 10, N-(5-{[2-(1H-indol-3-yl)ethyl]amino}-1,3,4-thiadiazol-2-yl)-1,3-dioxo-1,3-dihydro-2-benzofuran-5-carboxamide], the figure is 99.7%. `O=C(Nc1nnc(NCCCCc2ccccc2)s1)c1ccc2c(c1)C(=O)OC2=O` [compound 11, 1,3-dioxo-N-{5-[(4-phenylbutyl)amino]-1,3,4-thiadiazol-2-yl}-1,3-dihydro-2-benzofuran-5-carboxamide] registered an inhibition at 25 µM of 99.6%. The molecule `O=C(Nc1nnc(NCc2ccc(Cl)c(Cl)c2)s1)c1ccc2c(c1)C(=O)OC2=O` [compound 12, N-{5-[(3,4-dichlorobenzyl)amino]-1,3,4-thiadiazol-2-yl}-1,3-dioxo-1,3-dihydro-2-benzofuran-5-carboxamide] returned an inhibition at 25 µM of 99.5%. The figure for `O=C(Nc1nnc(NCCC(c2ccccc2)c2ccccc2)s1)c1ccc2c(c1)C(=O)OC2=O` [compound 13, N-{5-[(3,3-diphenylpropyl)amino]-1,3,4-thiadiazol-2-yl}-1,3-dioxo-1,3-dihydro-2-benzofuran-5-carboxamide] is 99.3%; for `CCCCCCCC/C=C/CCCCCCCC(=O)Nc1nnc(NCCCN2CCN(C)CC2)s1` [compound 14, (E)-N-(5-{[3-(4-methylpiperazino)propyl]amino}-1,3,4-thiadiazol-2-yl)-9-octadecenamide] it is 99%. As for `NS(=O)(=O)c1ccc(CCNc2nnc(NC(=O)c3ccc4c(c3)C(=O)OC4=O)s2)cc1` [compound 15, N-(5-{[4-(aminosulfonyl)phenethyl]amino}-1,3,4-thiadiazol-2-yl)-1,3-dioxo-1,3-dihydro-2-benzofuran-5-carboxamide], testing at 25 µM gave an inhibition of 98.8%. As to `COc1ccc(CNc2nnc(NC(=O)c3ccc4c(c3)C(=O)OC4=O)s2)cc1OC` [compound 16, N-{5-[(3,4-dimethoxybenzyl)amino]-1,3,4-thiadiazol-2-yl}-1,3-dioxo-1,3-dihydro-2-benzofuran-5-carboxamide], at 25 µM the inhibition was 98.7%. `O=C(Nc1nnc(NCC(c2ccccc2)c2ccccc2)s1)c1ccc2c(c1)C(=O)OC2=O` [compound 17, N-{5-[(2,2-diphenylethyl)amino]-1,3,4-thiadiazol-2-yl}-1,3-dioxo-1,3-dihydro-2-benzofuran-5-carboxamide] registered an inhibition at 25 µM of 98.6%. On to `CCCCCCCC/C=C/CCCCCCCC(=O)Nc1nnc(NCc2ccc(S(N)(=O)=O)cc2)s1` [compound 18, (E)-N-(5-{[4-(aminosulfonyl)benzyl]amino}-1,3,4-thiadiazol-2-yl)-9-octadecenamide], for which testing at 25 µM gave an inhibition of 98.3%. The figure for `CCCCCCCC/C=C/CCCCCCCC(=O)Nc1nnc(NCCN2CCCC2)s1` [compound 19, (E)-N-(5-{[2-(1-pyrrolidinyl)ethyl]amino}-1,3,4-thiadiazol-2-yl)-9-octadecenamide] is 97.7%; for `O=C(Nc1nnc(NCc2ccc3c(c2)OCO3)s1)c1ccc2c(c1)C(=O)OC2=O` [compound 20, N-{5-[(1,3-benzodioxol-5-ylmethyl)amino]-1,3,4-thiadiazol-2-yl}-1,3-dioxo-1,3-dihydro-2-benzofuran-5-carboxamide] it is 97.7%. The molecule `O=C(Nc1nnc(NC2CCCc3ccccc32)s1)c1ccc2c(c1)C(=O)OC2=O` (centres unmarked) [compound 21, 1,3-dioxo-N-[5-(1,2,3,4-tetrahydro-1-naphthalenylamino)-1,3,4-thiadiazol-2-yl]-1,3-dihydro-2-benzofuran-5-carboxamide] returned an inhibition at 25 µM of 97.4%.

Consider `COc1ccccc1C(=O)Nc1nnc(NC[C@@H]2CCC3CC2C3(C)C)s1` (stereo partly drawn) [compound 22, N-[5-({[(2R)-6,6-dimethylbicyclo[3.1.1]hept-2-yl]methyl}amino)-1,3,4-thiadiazol-2-yl]-2-methoxybenzamide], for which the inhibition at 25 µM worked out at 97.2%.

`CCCCCCCC/C=C/CCCCCCCC(=O)Nc1nnc(NCCN(C)C)s1` [compound 23, (E)-N-(5-{[2-(dimethylamino)ethyl]amino}-1,3,4-thiadiazol-2-yl)-9-octadecenamide] yielded an inhibition at 25 µM of 97%. Consider `O=C(Nc1nnc(NCCc2ccccc2)s1)c1ccc2c(c1)C(=O)OC2=O` [compound 24, 1,3-dioxo-N-[5-(phenethylamino)-1,3,4-thiadiazol-2-yl]-1,3-dihydro-2-benzofuran-5-carboxamide], for which the inhibition at 25 µM was determined as 95.6%. The figure for `CC1(C)C2CC[C@@H](CNc3nnc(NC(=O)c4ccc5c(c4)C(=O)OC5=O)s3)C1C2` (stereo partly drawn) [compound 25, N-[5-({[(2R)-6,6-dimethylbicyclo[3.1.1]hept-2-yl]methyl}amino)-1,3,4-thiadiazol-2-yl]-1,3-dioxo-1,3-dihydro-2-benzofuran-5-carboxamide] is 93.9%; for `CCOc1ccc2ccccc2c1C(=O)Nc1nnc(NCc2ccc(S(N)(=O)=O)cc2)s1` [compound 26, N-(5-{[4-(aminosulfonyl)benzyl]amino}-1,3,4-thiadiazol-2-yl)-2-ethoxy-1-naphthamide] it is 93.1%; for `CCOc1ccc2ccccc2c1C(=O)Nc1nnc(NCCCNC2CCCCC2)s1` [compound 27, N-(5-{[3-(cyclohexylamino)propyl]amino}-1,3,4-thiadiazol-2-yl)-2-ethoxy-1-naphthamide] it is 92.9%. With `CCCCCCCC/C=C/CCCCCCCC(=O)Nc1nnc(NC2CC2)s1` [compound 28, (E)-N-[5-(cyclopropylamino)-1,3,4-thiadiazol-2-yl]-9-octadecenamide], the inhibition at 25 µM stood at 92.6%.

`O=C(Nc1nnc(NC2CCCCCC2)s1)c1ccc2c(c1)C(=O)OC2=O` [compound 29, N-[5-(cycloheptylamino)-1,3,4-thiadiazol-2-yl]-1,3-dioxo-1,3-dihydro-2-benzofuran-5-carboxamide] showed an inhibition at 25 µM of 92.4%.
